Converted amounts (≈) assume the structure as drawn.
Key:
Format in all cases: cell-based
[1] = system: STAPHYLOCOCCUS AUREUS ATCC 6538P; assay: In vitro antibacterial activity, MIC, BHI agar dilution; details: S. aureus ATCC 6538P, 35-37° C., 20 to 24 hours, unit assumed
[2] = system: STAPHYLOCOCCUS AUREUS A5177; assay: as above; details: S. aureus A5177, unit assumed
[3] = system: STAPHYLOCOCCUS AUREUS A-5278; assay: as above; details: S. aureus A-5278, unit assumed
[4] = system: STAPHYLOCOCCUS AUREUS CMX 642A; assay: as above; details: S. aureus CMX 642A, unit assumed
[5] = system: STAPHYLOCOCCUS AUREUS NCTC10649M; assay: as above; details: S. aureus NCTC10649M, unit assumed
[6] = system: STAPHYLOCOCCUS AUREUS CMX 553; assay: as above; details: S. aureus CMX 553, unit assumed
[7] = system: STAPHYLOCOCCUS AUREUS 1775; assay: as above; details: S. aureus 1775, unit assumed
[8] = system: STAPHYLOCOCCUS EPIDERMIDIS 3519; details: S. epidermidis 3519; BHI agar; unit assumed
EN[…] ATCC 8043 = assay: In vitro antibacterial activity, MIC, BHI agar dilution; details: E. faecium ATCC 8043, unit assumed
In short: (§1)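 Twelve successive aqueous dilutions of compound in Brain Heart Infusion agar were inoculated with 1:100 culture dilutions (1:10 for slow growers such as Micrococcus, Streptococcus) by Steers replicator and incubated at 35-37° C for 20 to 24 hours. MIC was the lowest concentration giving no growth, slight haze or sparse colonies versus drug-free control.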

M[…] ATCC 4698 = assay: as above; details: M. luteus ATCC 4698, unit assumed
In short: as §1

M[…] ATCC 9341 = assay: as above; details: M. luteus ATCC 9341, unit assumed
In short: as §1

STR[…] 508 = assay: as above; details: S. agalactiae CMX 508, unit assumed
In short: as §1

[9] = system: STREPTOCOCCUS BOVIS A-5169; assay: as above; details: S. bovis A-5169, unit assumed
[10] = system: STREPTOCOCCUS PYOGENES EES61; assay: as above; details: S. pyogenes EES61, unit assumed
[11] = system: STREPTOCOCCUS PYOGENES 930; assay: as above; details: S. pyogenes 930, unit assumed
[12] = system: STREPTOCOCCUS PYOGENES PIU 2548; assay: as above; details: S. pyogenes PIU 2548, unit assumed
ESCHERICHIA COLI JUHL = details: E. coli JUHL; BHI agar; unit assumed
ESCHERICHIA COLI SS = assay: In vitro antibacterial activity, MIC, BHI agar dilution; details: E. coli SS, unit assumed
ESCHERICHIA COLI DC-2 = assay: as above; details: E. coli DC-2, unit assumed
ESCHERICHIA COLI H560 = assay: as above; details: E. coli H560, unit assumed
ESCHERICHIA COLI KNK 437 = details: E. coli KNK 437; BHI agar; unit assumed
[13] = system: ENTEROBACTER AEROGENES ATCC 13048; assay: In vitro antibacterial activity, MIC, BHI agar dilution; details: E. aerogenes ATCC 13048, unit assumed
[14] = system: KLEBSIELLA PNEUMONIAE ATCC 8045; assay: as above; details: K. pneumoniae ATCC 8045, unit assumed
[15] = system: PROVIDENCIA STUARTII CMX 640; details: P. stuartii CMX 640; BHI agar; unit assumed
[16] = system: PSEUDOMONAS AERUGINOSA BMH10; assay: In vitro antibacterial activity, MIC, BHI agar dilution; details: P. aeruginosa BMH10, unit assumed
[17] = system: PSEUDOMONAS AERUGINOSA 5007; assay: as above; details: P. aeruginosa 5007, unit assumed
[18] = system: PSEUDOMONAS AERUGINOSA K799/WT; assay: as above; details: P. aeruginosa K799/WT, unit assumed
[19] = system: PSEUDOMONAS AERUGINOSA K799/61; assay: as above; details: P. aeruginosa K799/61, unit assumed
PSEUDOMONAS CEPACIA 296I = assay: as above; details: P. cepacia 296I, unit assumed
[20] = system: ACINETOBACTER CALCOACETICUS CMX 669; assay: as above; details: A. calcoaceticus CMX 669, unit assumed
[21] = system: PSEUDOMONAS AERUGINOSA DPHD-5263; assay: as above; details: P. aeruginosa DPHD-5263, unit assumed
[22] = system: PSEUDOMONAS AERUGINOSA DPHD-2862; assay: as above; details: P. aeruginosa DPHD-2862, unit assumed
CANDIDA ALBICANS CCH 442 = assay: as above; details: C. albicans CCH 442, unit assumed
[23] = system: MYCOBACTERIUM SMEGMATIS ATCC 114; assay: as above; details: M. smegmatis ATCC 114, unit assumed

## CCC1OC(=O)C(C)C(=O)C(C)C(OC2OC(C)CC(N(C)C)C2O)C(C)(OC)CC(C)C2=NC(CCOc3ccccc3)CN3C(=O)OC1(C)C3C2C (centres unmarked) [Example 91]
[1]
  MIC: 0.78 µg/mL (≈ 1.03 µM)
[2]
  MIC: 0.78 µg/mL (≈ 1.03 µM)
[3]
  MIC: > 100 µg/mL
[4]
  MIC: 0.78 µg/mL (≈ 1.03 µM)
[5]
  MIC: 0.78 µg/mL (≈ 1.03 µM)
[6]
  MIC: 0.78 µg/mL (≈ 1.03 µM)
[7]
  MIC: > 100 µg/mL
[8]
  MIC: 0.78 µg/mL (≈ 1.03 µM)
EN[…] ATCC 8043
  MIC: 0.1 µg/mL (≈ 0.132 µM)
M[…] ATCC 4698
  MIC: 0.39 µg/mL (≈ 0.515 µM)
M[…] ATCC 9341
  MIC: 0.1 µg/mL (≈ 0.132 µM)
STR[…] 508
  MIC: 0.05 µg/mL (≈ 0.066 µM)
[9]
  MIC: 0.01 µg/mL (≈ 0.0132 µM)
[10]
  MIC: 0.05 µg/mL (≈ 0.066 µM)
[11]
  MIC: 100 µg/mL (≈ 132 µM)
[12]
  MIC: 0.39 µg/mL (≈ 0.515 µM)
ESCHERICHIA COLI JUHL
  MIC: > 100 µg/mL
ESCHERICHIA COLI SS
  MIC: 3.1 µg/mL (≈ 4.09 µM)
ESCHERICHIA COLI DC-2
  MIC: > 100 µg/mL
ESCHERICHIA COLI H560
  MIC: > 100 µg/mL
ESCHERICHIA COLI KNK 437
  MIC: > 100 µg/mL
[13]
  MIC: > 100 µg/mL
[14]
  MIC: > 100 µg/mL
[15]
  MIC: > 100 µg/mL
[16]
  MIC: > 100 µg/mL
[17]
  MIC: > 100 µg/mL
[18]
  MIC: > 100 µg/mL
[19]
  MIC: 12.5 µg/mL (≈ 16.5 µM)
PSEUDOMONAS CEPACIA 296I
  MIC: > 100 µg/mL
[20]
  MIC: > 100 µg/mL
[21]
  MIC: > 100 µg/mL
[22]
  MIC: > 100 µg/mL
CANDIDA ALBICANS CCH 442
  MIC: > 100 µg/mL
[23]
  MIC: 1.56 µg/mL (≈ 2.06 µM)

## CCC1OC(=O)C(C)C(=O)C(C)C(OC2OC(C)CC(N(C)C)C2O)C(C)(OC)CC(C)C2=NC(COCc3cc(OC)cc(OC)c3)CN3C(=O)OC1(C)C3C2C (centres unmarked) [Example 100]
[1]
  MIC: 0.1 µg/mL (≈ 0.122 µM)
[2]
  MIC: 0.1 µg/mL (≈ 0.122 µM)
[3]
  MIC: > 100 µg/mL
[4]
  MIC: 0.2 µg/mL (≈ 0.244 µM)
[5]
  MIC: 0.05 µg/mL (≈ 0.0611 µM)
[6]
  MIC: 0.1 µg/mL (≈ 0.122 µM)
[7]
  MIC: > 100 µg/mL
[8]
  MIC: 0.2 µg/mL (≈ 0.244 µM)
EN[…] ATCC 8043
  MIC: 0.01 µg/mL (≈ 0.0122 µM)
M[…] ATCC 4698
  MIC: 0.1 µg/mL (≈ 0.122 µM)
M[…] ATCC 9341
  MIC: < 0.005 µg/mL
STR[…] 508
  MIC: 0.01 µg/mL (≈ 0.0122 µM)
[9]
  MIC: 0.01 µg/mL (≈ 0.0122 µM)
[10]
  MIC: 0.01 µg/mL (≈ 0.0122 µM)
[11]
  MIC: 100 µg/mL (≈ 122 µM)
[12]
  MIC: 0.2 µg/mL (≈ 0.244 µM)
ESCHERICHIA COLI JUHL
  MIC: > 100 µg/mL
ESCHERICHIA COLI SS
  MIC: 1.56 µg/mL (≈ 1.91 µM)
ESCHERICHIA COLI DC-2
  MIC: > 100 µg/mL
ESCHERICHIA COLI H560
  MIC: 50 µg/mL (≈ 61.1 µM)
ESCHERICHIA COLI KNK 437
  MIC: > 100 µg/mL
[13]
  MIC: > 100 µg/mL
[14]
  MIC: > 100 µg/mL
[15]
  MIC: > 100 µg/mL
[16]
  MIC: > 100 µg/mL
[17]
  MIC: > 100 µg/mL
[18]
  MIC: > 100 µg/mL
[19]
  MIC: 1.56 µg/mL (≈ 1.91 µM)
PSEUDOMONAS CEPACIA 296I
  MIC: 100 µg/mL (≈ 122 µM)
[20]
  MIC: 100 µg/mL (≈ 122 µM)
[21]
  MIC: > 100 µg/mL
[22]
  MIC: > 100 µg/mL
CANDIDA ALBICANS CCH 442
  MIC: > 100 µg/mL
[23]
  MIC: 0.78 µg/mL (≈ 0.954 µM)

— patent US6274715A, “Tricyclic erythromycin derivatives” (priority 1997, dated 2001)
